According to patent US20230114107A1, “COMBINATION ANTI-CANCER THERAPIES WITH INDUCERS OF IRON-DEPENDENT CELLULAR DISASSEMBLY” (Flagship Pioneering Innovations V, Inc., priority 2019, published 2023):
Entries after “also recorded” stand apart in the source; their conditions may differ.

Legend:
[1] = test system: IRF reporter in THP1-Dual cells; test: IRF reporter activity in THP1-Dual monocytes co-cultured with treated A20 cells; assay type: cell-based, human; details: A20 cells treated 24 hours, co-culture 24 hours; vs DMSO; FIG. 6C
Protocol: A20 B-cell leukemia cells were treated with either control (DMSO) or various doses of RSL3, for 24 hours prior to co-culture with THP1-Dual cells for an additional 24 hours. RSL3 was purchased from Selleckchem (Houston, Tex.) and dissolved in DMSO. Subsequently, the THP1 supernatants were assessed for NFKB or IRF reporter activity. A20 cells were acquired from ATCC and THP1-Dual cells acquired from InvivoGen (San Diego, Calif.). Both cell types were cultured in 96-well plates for the duration of the assay. 50,000 A20 cells were plated 24 hours prior to dosing with RSL3, with a final DMSO concentration of 0.5%. 24 hours post-treatment, THP1-Dual cells (25,000 cells/well) were added to the A20 cells. 24 hours later, 30 μl of supernatant was mixed with either 200 μl QuantiBlue (InvivoGen, San Diego, Calif.) or 50 μl QuantiLuc and absorbance or luminescence was recorded on a Molecular Devices plate reader.

A375-VR cells = test: CellTiter-Glo 2.0 viability of vemurafenib-resistant melanoma cells; assay type: cell-based, human; details: graded concentrations, 72 hours; vs non-resistant parental cell line; FIG. 16B
Protocol: (§1) The effects of the ferroptosis inducer RSL3 on cancer cell lines with acquired resistance to standard of care therapeutics was assessed in vitro. Human melanoma cell lines with acquired resistance to BRAF inhibitors (A375-DR or A375-VR) were generated by propagating parental A375 cells in increasing concentrations of dabrafenib or vemurafenib (10 nM-100 μM) over 8 weeks. These resistant melanoma cell lines were further maintained in growth medium containing 5 μM dabrafenib or vemurafenib. BT-474 Clone 5, a human breast cancer cell line that is resistant to trastuzumab, was purchased from American Type Culture Collection (ATCC). 5,000 A375-DR, A375-VR, or BT-474 clone 5 cells were plated per well in flat-bottom 96 well plates and incubated overnight. Cells were then dosed with graded concentrations of RSL3 for 72 hours, and cellular viability was assessed using the CellTiter-Glo 2.0 Cell Viability Assay. The experiments were run in triplicate.

BT-474 Clone 5 cells = test: CellTiter-Glo 2.0 viability of trastuzumab-resistant breast cancer cells; assay type: cell-based, human; details: graded concentrations, 72 hours; vs non-resistant parental cell line; FIG. 16C
Protocol: as §1

[2] = test system: A20 B-cell leukemia cells; test: Viability of A20 B-cell leukemia / lymphoma cells after treatment; assay type: cell-based; details: 24 hours
A375-DR cells = test: CellTiter-Glo 2.0 viability of dabrafenib-resistant melanoma cells; assay type: cell-based, human; details: graded concentrations, 72 hours; vs non-resistant parental cell line; FIG. 16A
Protocol: as §1

[3] = test system: Caki-1 renal cell carcinoma cells; test: Viability of Caki-1 renal cell carcinoma cells after treatment; assay type: cell-based; details: 24 hours
[4] = test system: NFKB reporter in THP1-Dual cells; test: NFKB reporter activity in THP1-Dual monocytes co-cultured with treated Jurkat cells; assay type: cell-based, human; details: Jurkat cells treated 24 hours, co-culture 24 hours; vs DMSO; FIG. 5B
Protocol: Jurkat T cell leukemia cells were treated with either control (DMSO) or various doses of RSL3, for 24 hours prior to co-culture with THP1-Dual cells for an additional 24 hours. RSL3 was purchased from Selleckchem (Houston, Tex.) and dissolved in DMSO. Subsequently, the THP1 supernatants were assessed for NFKB or IRF reporter activity.
Jurkat cells were acquired from ATCC and THP1-Dual cells acquired from InvivoGen (San Diego, Calif.). Both cell types were cultured in 96-well plates for the duration of the assay. 100,000 Jurkat cells were plated 24 hours prior to dosing with RSL3, with a final DMSO concentration of 0.5%. 24 hours post-treatment, THP1-Dual cells (25,000 cells/well) were added to the Jurkat cells. 24 hours later, 30 μl of supernatant was mixed with either 200 μl QuantiBlue (InvivoGen, San Diego, Calif.) or 50 μl QuantiLuc and absorbance or luminescence was recorded on a Molecular Devices plate reader.

[5] = test system: NFKB reporter in THP1-Dual cells; test: NFKB reporter activity in THP1-Dual monocytes co-cultured with treated A20 cells; assay type: cell-based, human
Protocol: A20 B-cell leukemia cells were treated with either control (DMSO) or various doses of RSL3, for 24 hours prior to co-culture with THP1-Dual cells for an additional 24 hours. RSL3 was purchased from Selleckchem (Houston, Tex.) and dissolved in DMSO. Subsequently, the THP1 supernatants were assessed for NFKB or IRF reporter activity.
A20 cells were acquired from ATCC and THP1-Dual cells acquired from InvivoGen (San Diego, Calif.). Both cell types were cultured in 96-well plates for the duration of the assay. 50,000 A20 cells were plated 24 hours prior to dosing with RSL3, with a final DMSO concentration of 0.5%. 24 hours post-treatment, THP1-Dual cells (25,000 cells/well) were added to the A20 cells. 24 hours later, 30 μl of supernatant was mixed with either 200 μl QuantiBlue (InvivoGen, San Diego, Calif.) or 50 μl QuantiLuc and absorbance or luminescence was recorded on a Molecular Devices plate reader.
A20 lymphoma cells were treated with various doses (e.g. 0.002, 0.005, 0.014, 0.041, 0.123, 0.370, 1.111, 3.333 and 10 μM) of a GPX4 inhibitor (RSL3, ML162 or ML210) in the presence or absence of 1 μM Ferrostatin-1 for 24 hours. ML162 was purchased from Cayman Chemical Company Inc and resuspended in DMSO. ML210 was purchased from Sigma-Aldrich and resuspended in DMSO. A20 lymphoma cells were also treated with DMSO as a negative control. After treatment with DMSO or a GPX4 inhibitor for 24 hours, the A20 lymphoma cells were co-cultured with THP1-Dual cells for an additional 24 hours. Subsequently, the THP1 supernatant was assessed for NFKB reporter activity. A20 cells were acquired from ATCC and THP1-Dual cells were acquired from InvivoGen (San Diego, Calif.). Both cell types were cultured in 96-well plates for the duration of the assay.

In the case of COC(=O)c1ccc([C@H]2c3[nH]c4ccccc4c3C[C@H](C(=O)OC)N2C(=O)CCl)cc1 [RSL3], the “IRF signaling in THP1 monocytes” value [1] is reported as “elicited”, the “sensitivity of A375-VR cells to RSL3-induced ferroptosis (cellular viability)” value (A375-VR cells) is reported as “sensitive to RSL3-induced ferroptosis; also recorded: more sensitive to RSL3-induced ferroptosis than the corresponding non-resistant parental cell line” and the “sensitivity of BT-474 clone 5 cells to RSL3-induced ferroptosis (cellular viability)” value (BT-474 Clone 5 cells) is reported as “sensitive to RSL3-induced ferroptosis; also recorded: more sensitive to RSL3-induced ferroptosis than the corresponding non-resistant parental cell line”. For the same molecule, the “viability of A20 lymphoma cells, dose dependence” value ([2]; GPX4 inhibitor 0.002-10 μM, FIG. 10A, 11A, 12A) was “decreased viability of the cells in a dose dependent manner”, the “viability of A20 B cell leukemia cells” value ([2]; various doses, FIG. 6A) was “negatively affected the viability” and the “sensitivity of A375-DR cells to RSL3-induced ferroptosis (cellular viability)” value (A375-DR cells) was “sensitive to RSL3-induced ferroptosis; also recorded: more sensitive to RSL3-induced ferroptosis than the corresponding non-resistant parental cell line”. For the same molecule, the “viability of Caki-1 renal carcinoma cells, dose dependence” value ([3]; GPX4 inhibitor various doses, FIG. 13A, 14A) was “decreased viability of the cells in a dose dependent manner”, the “viability of Caki-1 cells” value ([3]; various doses, FIG. 3A, 4A) was “negatively affected the viability” and the “NFKB signaling in THP1 monocytes” value [4] was “elicited NFKB signaling in THP1 monocytes”. The “NFKB signaling in THP1 monocytes” value ([5]; A20 cells treated 24 hours, co-culture 24 hours, vs DMSO, FIG. 6B) was “elicited” and the “NFKB activity in THP1 cells, dose dependence” value ([5]; A20 lymphoma cells treated with GPX4 inhibitor, FIG. 10B, 11B, 12B) was “increased NFKB activity in THP1 cells in a dose dependent manner”.
